Experimental data taken from patent US20230035892A1, “METHODS AND COMPOSITIONS FOR TREATING CANCER” (Flagship Pioneering Innovations V, Inc., priority 2019, published 2023).

Tests used:
Assay type in all cases: cell-based
Capan1 = test: Proliferation, percent viability normalized to DMSO; settings: Homo sapiens, CAPAN-1
Source text: The GRK2 small molecule antagonist of Formula III-26 was used to evaluate the effect of a small molecule GRK2 antagonist on the proliferation of pancreatic cancer cell lines Miapaca2, Panc1, BXPC3, PAXF1657, PAXF1997 and Capan1. Values represent percent viability normalized to DMSO.

[1] = tested on: sgGrk2-expressing Miapaca2 cells; test: Colony formation assay in sgGrk2-expressing cells (target specificity); settings: Miapaca
Method: (§1) To assess the target specificity of the GRK2 small molecule antagonist of Formula III-26, sgGRK2-expressing cells were treated with the compound of Formula III-26. If GRK2 knockout is complete and the compound of Formula III-26 inhibits only GRK2, the addition of the compound of Formula III-26 should not induce any additional growth defect compared to sgRNA KO alone. […] This is potentially due to the lower GRK2 knockout efficiency that can be achieved in PAXF1657 compared to Miapaca2, as shown in Table 16.

[2] = tested on: sgGrk2-expressing PAXF1657 cells; test: as above
Method: as §1

[3] = PAXF1657, 1 μM, sgGRK2-2 (SEQ ID NO: 3)
[4] = PAXF1657, 1 μM, sgGRK2-3 (SEQ ID NO: 4)
[5] = PAXF1657, 3 μM, sgGRK2-2 (SEQ ID NO: 3)
[6] = PAXF1657, 3 μM, sgGRK2-3 (SEQ ID NO: 4)

Cn1c(CNc2cccc(C(=O)NCc3ccccc3C(F)(F)F)c2)nnc1-c1ccncc1 [Compound of Formula III-26]
viability at 0.005 µM (Capan1; Capan1, dose 0.005 μM): 107% | viability at 0.014 µM (Capan1; Capan1, dose 0.014 μM): 108% | viability at 0.041 µM (Capan1; Capan1, dose 0.041 μM): 112% | viability at 0.123 µM (Capan1; Capan1, dose 0.123 μM): 114% | viability at 0.37 µM (Capan1; Capan1, dose 0.370 μM): 112% | viability at 1.111 µM (Capan1; Capan1, dose 1.111 μM): 106% | viability at 3.333 µM (Capan1; Capan1, dose 3.333 μM): 100% | viability at 10 µM (Capan1; Capan1, dose 10.000 μM): 90% | viability at 30 µM (Capan1; Capan1, dose 30.000 μM): 95.4% | Difference between rel +dox and −dox signal ([1]; 1 μM, sgGRK2-pooled): 0.00 | Rel +dox ([1]; 1 μM, sgGRK2-pooled): 0.76 | Rel −dox ([1]; 1 μM, sgGRK2-pooled): 0.75 | Difference between rel +dox and −dox signal ([1]; 1 μM, sgNTC): 0.05 | Rel +dox ([1]; 1 μM, sgNTC): 0.77 | Rel −dox ([1]; 1 μM, sgNTC): 0.81 | Difference between rel +dox and −dox signal ([1]; 3 μM, sgGRK2-pooled): 0.04 | Rel +dox ([1]; 3 μM, sgGRK2-pooled): 0.43 | Rel −dox ([1]; 3 μM, sgGRK2-pooled): 0.47 | Difference between rel +dox and −dox signal ([1]; 3 μM, sgNTC): 0.12 | Rel +dox ([1]; 3 μM, sgNTC): 0.53 | Rel −dox ([1]; 3 μM, sgNTC): 0.65 | Difference between rel +dox and −dox signal [2, 3]: 0.45 | Rel +dox [2, 3]: 0.44 | Rel −dox [2, 3]: 0.89 | Difference between rel +dox and −dox signal [2, 4]: 0.37 | Rel +dox [2, 4]: 0.40 | Rel −dox [2, 4]: 0.78 | Difference between rel +dox and −dox signal ([2]; PAXF1657, 1 μM, sgGRK2-pooled): 0.29 | Rel +dox ([2]; PAXF1657, 1 μM, sgGRK2-pooled): 0.49 | Rel −dox ([2]; PAXF1657, 1 μM, sgGRK2-pooled): 0.78 | Difference between rel +dox and −dox signal ([2]; PAXF1657, 1 μM, sgNTC): −0.04 | Rel +dox ([2]; PAXF1657, 1 μM, sgNTC): 0.78 | Rel −dox ([2]; PAXF1657, 1 μM, sgNTC): 0.73 | Difference between rel +dox and −dox signal [2, 5]: 0.26 | Rel +dox [2, 5]: 0.41 | Rel −dox [2, 5]: 0.67 | Difference between rel +dox and −dox signal [2, 6]: 0.32 | Rel +dox [2, 6]: 0.22 | Rel −dox [2, 6]: 0.55 | Difference between rel +dox and −dox signal ([2]; PAXF1657, 3 μM, sgGRK2-pooled): 0.11 | Rel +dox ([2]; PAXF1657, 3 μM, sgGRK2-pooled): 0.48 | Rel −dox ([2]; PAXF1657, 3 μM, sgGRK2-pooled): 0.59 | Difference between rel +dox and −dox signal ([2]; PAXF1657, 3 μM, sgNTC): 0.01 | Rel +dox ([2]; PAXF1657, 3 μM, sgNTC): 0.56 | Rel −dox ([2]; PAXF1657, 3 μM, sgNTC): 0.57
